27 molecules from patent US11547697B2, “Heterocyclic compounds and uses thereof” (MILLENNIUM PHARMACEUTICALS, INC., priority 2009, dated 2023) can be followed below.

Holding throughout (type): biochemical
Experiment [1] addresses p110β/p85α (Homo sapiens (Human), UniProt P42338). The experiment can be described thus: PI 3-Kinase (human) HTRF assay, p110β/p85α. The settings on record: read-out: PI3K β IC50.
Experiment [2] concerns the target p110γ (Homo sapiens (Human), UniProt P48736). The experiment can be described thus: PI 3-Kinase (human) HTRF assay, p110γ. The settings on record: read-out: PI3K γ IC50.
In experiment [3] the target is p110α/p85α (Homo sapiens (Human), UniProt P42336). In words: PI 3-Kinase (human) HTRF assay, p110α/p85α. The settings on record: read-out: PI3K α IC50.
Chain of p110α/p85α (P42336 whole entry): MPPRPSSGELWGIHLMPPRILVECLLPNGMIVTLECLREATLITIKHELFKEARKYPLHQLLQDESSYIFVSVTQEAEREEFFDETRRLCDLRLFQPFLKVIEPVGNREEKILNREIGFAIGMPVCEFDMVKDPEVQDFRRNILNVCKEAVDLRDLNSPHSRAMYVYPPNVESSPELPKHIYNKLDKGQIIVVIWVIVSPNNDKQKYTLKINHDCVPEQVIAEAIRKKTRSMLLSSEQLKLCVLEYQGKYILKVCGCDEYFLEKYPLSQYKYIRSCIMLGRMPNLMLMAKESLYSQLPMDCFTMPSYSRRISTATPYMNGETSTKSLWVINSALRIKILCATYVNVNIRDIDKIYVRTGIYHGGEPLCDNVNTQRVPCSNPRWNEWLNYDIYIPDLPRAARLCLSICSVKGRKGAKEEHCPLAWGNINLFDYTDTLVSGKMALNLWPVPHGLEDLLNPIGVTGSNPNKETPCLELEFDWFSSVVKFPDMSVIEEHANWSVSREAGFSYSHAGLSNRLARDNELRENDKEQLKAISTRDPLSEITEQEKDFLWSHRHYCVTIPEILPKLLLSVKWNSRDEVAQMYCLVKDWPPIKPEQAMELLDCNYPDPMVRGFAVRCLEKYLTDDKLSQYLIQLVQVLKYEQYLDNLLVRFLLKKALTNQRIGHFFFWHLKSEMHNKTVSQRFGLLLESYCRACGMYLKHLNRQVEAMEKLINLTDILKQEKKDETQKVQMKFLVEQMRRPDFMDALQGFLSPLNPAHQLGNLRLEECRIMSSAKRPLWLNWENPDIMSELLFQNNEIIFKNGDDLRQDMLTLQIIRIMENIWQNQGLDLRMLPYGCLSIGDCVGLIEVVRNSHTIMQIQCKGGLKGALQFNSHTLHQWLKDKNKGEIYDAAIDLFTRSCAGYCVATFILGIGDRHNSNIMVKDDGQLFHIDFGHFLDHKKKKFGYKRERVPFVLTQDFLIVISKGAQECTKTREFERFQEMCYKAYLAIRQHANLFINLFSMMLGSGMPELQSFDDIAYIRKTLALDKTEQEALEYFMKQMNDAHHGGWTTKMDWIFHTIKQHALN
Chain of p110α/p85α (P27986 whole entry partner): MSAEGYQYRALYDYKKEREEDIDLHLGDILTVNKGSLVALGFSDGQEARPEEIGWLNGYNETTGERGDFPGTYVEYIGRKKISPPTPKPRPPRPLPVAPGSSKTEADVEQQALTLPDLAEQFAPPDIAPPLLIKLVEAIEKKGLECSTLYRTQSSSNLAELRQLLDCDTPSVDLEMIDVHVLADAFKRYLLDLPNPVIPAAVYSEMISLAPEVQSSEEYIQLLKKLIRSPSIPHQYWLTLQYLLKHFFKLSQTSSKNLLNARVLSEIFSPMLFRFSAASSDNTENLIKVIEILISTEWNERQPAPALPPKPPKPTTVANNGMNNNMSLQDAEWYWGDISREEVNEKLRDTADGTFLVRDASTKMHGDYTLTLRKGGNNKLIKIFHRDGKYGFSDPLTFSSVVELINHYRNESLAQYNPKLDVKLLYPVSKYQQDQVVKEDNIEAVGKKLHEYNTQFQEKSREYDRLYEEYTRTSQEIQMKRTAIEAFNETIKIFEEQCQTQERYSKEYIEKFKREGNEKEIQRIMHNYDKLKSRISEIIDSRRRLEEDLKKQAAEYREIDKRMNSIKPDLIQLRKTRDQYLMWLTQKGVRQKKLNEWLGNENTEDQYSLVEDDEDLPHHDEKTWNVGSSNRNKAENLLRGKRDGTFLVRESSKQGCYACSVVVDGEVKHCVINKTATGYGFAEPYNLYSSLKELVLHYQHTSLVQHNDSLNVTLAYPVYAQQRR

Read-outs that look alike come from different tables or passages of the source.

Chain of p110γ (P48736 whole entry): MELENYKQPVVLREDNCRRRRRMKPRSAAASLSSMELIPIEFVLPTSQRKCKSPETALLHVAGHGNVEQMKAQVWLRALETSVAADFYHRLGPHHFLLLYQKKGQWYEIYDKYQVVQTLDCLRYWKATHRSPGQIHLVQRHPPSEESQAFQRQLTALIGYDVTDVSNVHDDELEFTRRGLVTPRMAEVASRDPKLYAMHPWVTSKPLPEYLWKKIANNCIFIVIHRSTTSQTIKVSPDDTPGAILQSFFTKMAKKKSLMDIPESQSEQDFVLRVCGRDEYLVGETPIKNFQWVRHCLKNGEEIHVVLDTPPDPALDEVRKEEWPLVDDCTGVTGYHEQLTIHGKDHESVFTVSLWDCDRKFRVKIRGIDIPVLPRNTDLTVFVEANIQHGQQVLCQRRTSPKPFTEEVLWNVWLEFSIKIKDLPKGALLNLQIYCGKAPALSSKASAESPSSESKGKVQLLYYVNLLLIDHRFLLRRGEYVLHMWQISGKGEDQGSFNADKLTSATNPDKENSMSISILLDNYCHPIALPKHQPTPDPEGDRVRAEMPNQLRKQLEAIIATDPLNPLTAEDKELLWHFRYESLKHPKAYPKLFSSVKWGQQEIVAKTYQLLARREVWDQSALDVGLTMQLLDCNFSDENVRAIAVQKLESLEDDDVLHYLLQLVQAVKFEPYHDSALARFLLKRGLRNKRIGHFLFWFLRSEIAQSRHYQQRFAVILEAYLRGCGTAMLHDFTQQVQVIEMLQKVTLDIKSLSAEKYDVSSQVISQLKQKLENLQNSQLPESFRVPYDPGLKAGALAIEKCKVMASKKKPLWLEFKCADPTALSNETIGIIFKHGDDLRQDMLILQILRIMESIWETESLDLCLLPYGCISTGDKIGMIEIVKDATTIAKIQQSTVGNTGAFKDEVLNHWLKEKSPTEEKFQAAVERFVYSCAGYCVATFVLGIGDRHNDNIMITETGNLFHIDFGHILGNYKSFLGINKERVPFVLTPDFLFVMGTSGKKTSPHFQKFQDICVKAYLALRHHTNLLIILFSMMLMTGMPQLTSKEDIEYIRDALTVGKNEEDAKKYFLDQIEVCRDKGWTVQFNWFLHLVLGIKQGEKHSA
Chain of p110β/p85α (P42338 whole entry): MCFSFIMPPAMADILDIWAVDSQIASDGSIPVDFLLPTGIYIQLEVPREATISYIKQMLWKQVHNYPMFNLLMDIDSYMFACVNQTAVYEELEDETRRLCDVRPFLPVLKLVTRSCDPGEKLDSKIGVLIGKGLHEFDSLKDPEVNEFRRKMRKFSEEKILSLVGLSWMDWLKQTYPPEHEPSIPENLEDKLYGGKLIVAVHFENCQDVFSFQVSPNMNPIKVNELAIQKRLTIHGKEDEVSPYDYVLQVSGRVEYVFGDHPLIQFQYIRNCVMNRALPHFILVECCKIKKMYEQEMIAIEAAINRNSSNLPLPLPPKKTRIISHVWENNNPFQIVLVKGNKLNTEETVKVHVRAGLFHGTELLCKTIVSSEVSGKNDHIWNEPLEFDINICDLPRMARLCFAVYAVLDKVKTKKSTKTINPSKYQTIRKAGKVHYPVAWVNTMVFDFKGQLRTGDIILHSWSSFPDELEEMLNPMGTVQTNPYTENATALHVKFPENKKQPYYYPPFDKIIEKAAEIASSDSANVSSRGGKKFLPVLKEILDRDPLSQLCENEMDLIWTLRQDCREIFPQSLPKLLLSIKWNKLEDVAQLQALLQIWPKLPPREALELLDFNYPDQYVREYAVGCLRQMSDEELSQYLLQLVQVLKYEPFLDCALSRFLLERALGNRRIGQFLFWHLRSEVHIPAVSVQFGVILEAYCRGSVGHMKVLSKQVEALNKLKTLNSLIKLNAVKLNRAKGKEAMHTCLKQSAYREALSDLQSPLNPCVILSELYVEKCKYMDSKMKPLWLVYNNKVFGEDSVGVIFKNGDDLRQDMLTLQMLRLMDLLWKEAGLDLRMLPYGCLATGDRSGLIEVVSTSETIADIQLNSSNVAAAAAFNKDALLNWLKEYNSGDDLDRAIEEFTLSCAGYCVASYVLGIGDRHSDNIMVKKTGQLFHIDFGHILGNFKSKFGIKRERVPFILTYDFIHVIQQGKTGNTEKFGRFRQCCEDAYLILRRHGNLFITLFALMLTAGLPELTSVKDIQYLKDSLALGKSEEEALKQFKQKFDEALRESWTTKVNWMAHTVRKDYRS
Chain of p110β/p85α (P27986 whole entry partner): as the sequence (P27986 whole entry partner) above

Take `Nc1ncc2cc(-c3ccc4nccc(-c5ccncc5)c4c3)ccc2n1` [compound 9]: the values for the IC50 in experiment [1], in experiment [2] and in experiment [3] were < 10 µM, < 1 µM and < 1 µM, respectively.

As for `Nc1nc2cc(-c3ccc4ncc(N5CCOCC5)n4n3)ccc2o1` [compound 57], the IC50 in experiment [1] was < 1 µM; in experiment [2], < 10 µM; in experiment [3] it was < 1 µM.

Regarding `CCN1CCC(n2cnc3ccc(-c4ccc5oc(N)nc5c4)cc3c2=O)CC1` [compound 73], the results for the IC50 in experiment [1] and in experiment [3] were < 10 µM and < 1 µM, respectively.

For `Nc1nc2cc(-c3ccc4ncn(C5CCNCC5)c(=O)c4c3)ccc2o1` [compound 75], the IC50 in experiment [1] is < 10 µM; in experiment [2] it was < 10 µM; in experiment [3], < 0.1 µM.

In the case of `Nc1nc2cc(-c3ccc4ncc(C(=O)N5CCOCC5)n4n3)ccc2o1` [compound 105], the IC50 is < 10 µM in experiment [1], < 1 µM in experiment [2] and < 1 µM in experiment [3].

Regarding `Nc1nc2cc(-c3ccc4ncc(C(=O)N5CCNCC5)n4c3)ccc2o1` [compound 111], the results for the IC50 in experiment [1] and in experiment [3] were < 10 µM and < 0.1 µM, respectively.

Turning to `CN1CCN(c2cnc3ccc(-c4ccc5nc(N)oc5c4)cc3n2)CC1` [compound 118], the IC50 is < 0.1 µM in experiment [1], < 10 µM in experiment [2] and < 1 µM in experiment [3].

Regarding `Nc1nc2ccc(-c3ccc4ncc(C(=O)N5CCOCC5)n4c3)cc2o1` [compound 124], the IC50 in experiment [1], in experiment [2] and in experiment [3] was < 1 µM each time.

In the case of `Nc1nc2cc(-c3ccc4ncc(C(=O)N5CCOCC5)n4c3)ccc2s1` [compound 126], the IC50 in experiment [1] was < 10 µM; in experiment [2], < 1 µM; in experiment [3] it was < 1 µM.

On to `CN1CCN(c2cnc3ccc(-c4ccc5sc(N)nc5c4)cc3n2)CC1` [compound 127], for which the values for the IC50 in experiment [1], in experiment [2] and in experiment [3] were < 0.1 µM, < 10 µM and < 1 µM, respectively.

Regarding `CN1CCCN(c2cnc3ccc(-c4ccc5oc(N)nc5c4)cc3n2)CC1` [compound 136], the results for the IC50 in experiment [1], in experiment [2] and in experiment [3] were < 1 µM, < 10 µM and < 1 µM, respectively.

For `CN1CCCN(C(=O)c2cnc3ccc(-c4ccc5oc(N)nc5c4)cn23)CC1` [compound 140], the IC50 in experiment [1] was < 10 µM; in experiment [3], < 1 µM.

Take `CN1CCN(C(=O)c2cnc3ccc(-c4ccc5sc(N)nc5c4)cn23)CC1` [compound 144]: the IC50 in experiment [1] is < 10 µM; in experiment [3], < 1 µM.

On to `CN1CCN(C(=O)c2cnc3ccc(-c4ccc5nc(N)oc5c4)cn23)CC1` [compound 145], for which the IC50 is < 10 µM in experiment [1], < 10 µM in experiment [2] and < 1 µM in experiment [3].

Consider `CN1CCN(C(=O)c2cnc3ccc(-c4ccc5nc(N)sc5c4)cn23)CC1` [compound 146], for which the IC50 in experiment [1] and in experiment [3] was < 10 µM in each case.

As for `CC1CN(C(=O)c2cnc3ccc(-c4ccc5oc(N)nc5c4)cn23)CCN1` (centres unmarked) [compound 164], the IC50 in experiment [1] and in experiment [3] was < 1 µM throughout.

On to `CN(CCN1CCOCC1)c1cnc2ccc(-c3ccc4oc(N)nc4c3)cc2n1` [compound 166], for which the IC50 was < 10 µM in experiment [1], < 10 µM in experiment [2] and < 1 µM in experiment [3].

As for `Nc1nc2cc(-c3ccc4ncc(-c5ccccn5)nc4c3)ccc2o1` [compound 195], the IC50 in experiment [1] is < 10 µM; in experiment [2], < 0.1 µM; in experiment [3], < 1 µM.

With `Nc1nc2cc(-c3ccc4ncc(C(=O)N5CCCCC5)n4c3)ccc2o1` [compound 196], the IC50 was < 10 µM in experiment [1], < 10 µM in experiment [2] and < 1 µM in experiment [3].

As for `Nc1nc2cc(-c3ccc4ncc(C(=O)N5CCC(N)CC5)n4c3)ccc2o1` [compound 204], the results for the IC50 in experiment [1] (in vitro) and in experiment [3] (in vitro) were < 1 µM and < 0.1 µM, respectively.

Regarding `CC(C)n1cnc2ccc(-c3ccc4oc(N)nc4c3)cc2c1=O` [compound 206], the IC50 in experiment [2] (in vitro) was < 10 µM; in experiment [3] (in vitro) it was < 0.1 µM.

For `Cc1ccn(C2CCN(c3cnc4ccc(-c5ccc6oc(N)nc6c5)cc4n3)CC2)n1` [compound 223], the 50% inhibitory concentration (IC50) is < 1 µM in experiment [2] (in vitro) and < 0.1 µM in experiment [3] (in vitro).

As for `Nc1nc2cc(-c3ccc4nnc(-c5ccncc5)n4c3)ccc2o1` [compound 229], the figures for the IC50 in experiment [1] (in vitro), in experiment [2] (in vitro) and in experiment [3] (in vitro) were < 1 µM, < 10 µM and < 1 µM, respectively.

`Nc1cn2cc(-c3ccc4nc(N)oc4c3)ccc2n1` [compound 247]: the IC50 in experiment [1] (in vitro) and in experiment [2] (in vitro) was < 10 µM each time.

Take `Nc1nc2cc(-c3ccc4ncn(C5CC5)c(=O)c4c3)ccc2o1` [compound 254]: the IC50 in experiment [2] (in vitro) and in experiment [3] (in vitro) was < 1 µM each time.

Regarding `NC(=O)[C@@H]1CCCN1C(=O)c1cnc2ccc(-c3ccc4oc(N)nc4c3)cn12` [compound 259], the IC50 in experiment [2] (in vitro) is < 10 µM; in experiment [3] (in vitro) it was < 1 µM.

For `NC(=O)[C@H]1CCCN1C(=O)c1cnc2ccc(-c3ccc4oc(N)nc4c3)cn12` [compound 260], the results for the IC50 in experiment [2] (in vitro) and in experiment [3] (in vitro) were < 10 µM and < 1 µM, respectively.
